Our source for the IC50 values is US9981916B2 (Genentech, Inc., priority 2013, dated 2018).

Structures are written as SMILES.

For the assay, the target named is T1, RORc ligand binding domain (Homo sapiens, UniProt P51449).
T1 construct: host or cells: E. coli
T1 sequence (P51449 269-508 limits assumed): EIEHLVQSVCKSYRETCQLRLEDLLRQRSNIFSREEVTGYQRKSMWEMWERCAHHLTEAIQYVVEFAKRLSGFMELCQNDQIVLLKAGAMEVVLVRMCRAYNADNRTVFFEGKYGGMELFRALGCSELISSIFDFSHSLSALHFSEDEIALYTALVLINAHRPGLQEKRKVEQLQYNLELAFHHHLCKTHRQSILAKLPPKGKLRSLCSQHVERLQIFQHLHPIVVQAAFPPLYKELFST
Nature of the assay: In vitro RORc ligand binding assay (25-[3H]hydroxycholesterol displacement, filter binding). Particulars: 6 nM 25-[3H]hydroxycholesterol, 0.6 ug/mL RORc receptor, 3 h at 25° C. In outline: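 Filter-binding displacement of 6 nM 25-[3H]hydroxycholesterol from RORc receptor (0.6 ug/mL) in 50 mM HEPES pH 7.4, 150 mM NaCl, 5 mM MgCl2, 1 mM DTT, 0.01% BSA, 5% DMSO; 3 h at 25° C. NSB defined with 1 uM 25-hydroxycholesterol; scintillation counting gave Kiapp, IC50 or % inhibition (screening at 1 and 10 uM).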

For `CC1(C)[C@@H]2CC[C@@]1(CN1CCCC1=O)c1nnc(-c3ccccc3F)cc12` [Example 18, 1-{[(5S,8R)-3-(2-fluorophenyl)-9,9-dimethyl-6,7-dihydro-5,8-methanocinnolin-8(5H)-yl]methyl}pyrrolidin-2-one], the IC50 amounted to 4810 nM.

`CNC(=O)[C@H]1[C@@H]2CN(C(=O)[C@]34CC[C@H](c5cc(-c6c(F)cccc6F)nnc53)C4(C)C)C[C@@H]21` [Example 222, (1R,5S,6S)-3-((5S,8S)-3-(2,6-difluorophenyl)-9,9-dimethyl-5,6,7,8-tetrahydro-5,8-methanocinnoline-8-carbonyl)-N-methyl-3-azabicyclo[3.1.0]hexane-6-carboxamide] registered an IC50 of 1430 nM.

Molecule `COC[C@@H]1CCCN1C(=O)[C@]12CC[C@H](c3cc(-c4c(F)cccc4F)nnc31)C2(C)C` [Example 246, ((5S,8S)-3-(2,6-difluorophenyl)-9,9-dimethyl-5,6,7,8-tetrahydro-5,8-methanocinnolin-8-yl)((S)-2-(methoxymethyl)pyrrolidin-1-yl)methanone] came in with an IC50 of 2840 nM.

For the molecule `CCN(C[C@@]12CC[C@@H](c3cc(-c4c(F)cccc4F)nnc31)C2(C)C)C(=O)CO` [Example 162, N-(((5R,8S)-3-(2,6-difluorophenyl)-9,9-dimethyl-5,6,7,8-tetrahydro-5,8-methanocinnolin-8-yl)methyl)-N-ethyl-2-hydroxyacetamide], the IC50 came to 8 nM.

In turn, `COC(=O)N(C)[C@@]12CC[C@@H](c3cc(-c4c(F)cccc4F)nnc31)C2(C)C` [Example 274, methyl ((5R,8R)-3-(2,6-difluorophenyl)-9,9-dimethyl-5,6,7,8-tetrahydro-5,8-methanocinnolin-8-yl)(methyl)carbamate] registered an IC50 of 301 nM.

With `CCN(C[C@@]12CC[C@@H](c3cc(-c4c(F)cccc4F)nnc31)C2(C)C)C(=O)c1cc(C)on1` [Example 158, N-(((5R,8S)-3-(2,6-difluorophenyl)-9,9-dimethyl-5,6,7,8-tetrahydro-5,8-methanocinnolin-8-yl)methyl)-N-ethyl-5-methylisoxazole-3-carboxamide], the IC50 came out at 6 nM.

Molecule `CC1(C)[C@@H]2CC[C@@]1(C(=O)N1CC(C#N)C1)c1nnc(-c3c(F)cccc3F)cc12` [Example 259, 1-((5S,8S)-3-(2,6-difluorophenyl)-9,9-dimethyl-5,6,7,8-tetrahydro-5,8-methanocinnoline-8-carbonyl)azetidine-3-carbnitrite] came in with an IC50 of 345 nM.

As for `Cc1noc(C[C@]23CC[C@H](c4cc(-c5ccccc5F)nnc42)C3(C)C)n1` [Example 42, (5S,8S)-3-(2-fluorophenyl)-9,9-dimethyl-8-[(3-methyl-yl)methyl]-5,6,7,8-tetrahydro-5,8-methanocinnoline], the concentration for half-maximal inhibition (IC50) was determined as 238 nM.

In turn, `CC1(C)[C@@H]2CC[C@@]1(C(=O)N1CCC3(COC3)C1)c1nnc(-c3c(F)cccc3F)cc12` [Example 218, ((5S,8S)-3-(2,6-difluorophenyl)-9,9-dimethyl-5,6,7,8-tetrahydro-5,8-methanocinnolin-8-yl)(2-oxa-6-azaspiro[3.4]octan-6-yl)methanone] came in with an IC50 of 2440 nM.

As for `CCOC(=O)c1nnc([C@@]23CC[C@@H](c4cc(-c5c(F)cccc5F)nnc42)C3(C)C)o1` [Example 327, ethyl 5-((5R,8R)-3-(2,6-difluorophenyl)-9,9-dimethyl-5,6,7,8-tetrahydro-5,8-methanocinnolin-8-yl)-1,3,4-oxadiazole-2-carboxylate], the IC50 was determined as 1390 nM.

The molecule `CC1(C)[C@H]2CC[C@]1(COCc1ccccc1)c1nnc(Oc3c(F)cccc3F)cc12` [Example 338, (5R,8R)-8-((benzyloxy)methyl)-3-(2,6-difluorophenoxy)-9,9-dimethyl-5,6,7,8-tetrahydro-5,8-methanocinnoline] had an IC50 of 66 nM.

The molecule `CC1(C)[C@H]2CC[C@]1(C(=O)N1CC(c3cc[nH]n3)C1)c1nnc(-c3ccccc3F)cc12` [Example 182, (3-(1H-pyrazol-3-yl)azetidin-1-yl)((5R,8R)-3-(2-fluorophenyl)-9,9-dimethyl-5,6,7,8-tetrahydro-5,8-methanocinnolin-8-yl)methanone] showed an IC50 of 3000 nM.

Molecule `CC1(C)[C@@H]2CC[C@@]1(C(=O)N1CC[C@@H](O)C1)c1nnc(-c3c(F)cccc3F)cc12` [Example 238, ((5S,8S)-3-(2,6-difluorophenyl)-9,9-dimethyl-5,6,7,8-tetrahydro-5,8-methanocinnolin-8-yl)((R)-3-hydroxypyrrolidin-1-yl)methanone] showed an IC50 of 236 nM.

For `Cc1nnc(C[C@@]23CC[C@@H](c4cc(-c5c(F)cccc5F)nnc42)C3(C)C)o1` [Example 65, (5R,8R)-3-(2,6-difluorophenyl)-9,9-dimethyl-8-[(5-methyl-1,3,4-oxadiazol-2-yl)methyl]-5,6,7,8-tetrahydro-5,8-methanocinnoline], the IC50 stood at 131 nM.

The molecule `CC(C)c1nnc([C@@]23CC[C@@H](c4cc(-c5c(F)cccc5F)nnc42)C3(C)C)o1` [Example 125, (5R,8R)-3-(2,6-difluorophenyl)-9,9-dimethyl-8-(5-isopropyl-1,3,4-oxadiazol-2-yl)-5,6,7,8-tetrahydro-5,8-methanocinnoline] had an IC50 of 811 nM.

In turn, `CC1(C)[C@H]2CC[C@]1(Cc1noc(CO)n1)c1nnc(-c3c(F)cccc3F)cc12` [Example 61, (3-{[(5R,8R)-3-(2,6-difluorophenyl)-9,9-dimethyl-6,7-dihydro-5,8-methanocinnolin-8(5H)-yl]methyl}-1,2,4-oxadiazol-5-yl)methanol] had a concentration for half-maximal inhibition (IC50) of 323 nM.

For `CC1(C)[C@@H]2CC[C@@]1(C(=O)N1CCC[C@H]1C(N)=O)c1nnc(-c3c(F)cccc3F)cc12` [Example 250, (S)-1-((5S,8S)-3-(2,6-difluorophenyl)-9,9-dimethyl-5,6,7,8-tetrahydro-5,8-methanocinnoline-8-carbonyl)pyrrolidine-2-carboxamide], the IC50 was found to be 3090 nM.

`CN(C(=O)OCCO)[C@@]12CC[C@@H](c3cc(-c4c(F)cccc4F)nnc31)C2(C)C` [Example 299, 2-hydroxyethyl ((5R,8R)-3-(2,6-difluorophenyl)-9,9-dimethyl-5,6,7,8-tetrahydro-5,8-methanocinnolin-8-yl)(methyl)carbamate] gave an IC50 of 1480 nM.

In turn, `COC1CCN(C(=O)[C@@]23CC[C@@H](c4cc(-c5ccccc5F)nnc42)C3(C)C)CC1` [Example 173, ((5R,8R)-3-(2-fluorophenyl)-9,9-dimethyl-5,6,7,8-tetrahydro-5,8-methanocinnolin-8-yl)(4-methoxypiperidin-1-yl)methanone] yielded an IC50 of 2470 nM.

Turning to `CC(=O)O[C@H]1C[C@@H]2c3cc(-c4ccccc4F)nnc3[C@@]1(C)C2(C)C` [Example 19, (5S,7S,8R)-3-(2-fluorophenyl)-8,9,9-trimethyl-5,6,7,8-tetrahydro-5,8-methanocinnolin-7-yl acetate], the IC50 was determined as 683 nM.

The molecule `CC(C)OC[C@]12CC[C@H](c3cc(-c4ccccc4F)nnc31)C2(C)C` [Example 38, (5S,8S)-3-(2-fluorophenyl)-9,9-dimethyl-8-[(propan-2-yloxy)methyl]-5,6,7,8-tetrahydro-5,8-methanocinnoline] registered an IC50 of 281 nM.

Molecule `CC1(C)[C@@H]2CC[C@@]1(C(=O)NC1CCCC1)c1nnc(-c3c(F)cccc3F)cc12` [Example 206, (5S,8S)-N-cyclopentyl-3-(2,6-difluorophenyl)-9,9-dimethyl-5,6,7,8-tetrahydro-5,8-methanocinnoline-8-carboxamide] came in with a half-maximal inhibitory concentration (IC50) of 1230 nM.

In turn, `CC(=O)OCC1(C)[C@@H]2CC[C@@]1(C)c1nnc(-c3ccccc3F)cc12` (some centres unmarked) yielded a half-inhibitory concentration (IC50) of 2460 nM.

`C[C@@H]1COC(=O)N1C[C@@]12CC[C@@H](c3cc(-c4c(F)cccc4F)nnc31)C2(C)C` [Example 294, (R)-3-(((5R,8S)-3-(2,6-difluorophenyl)-9,9-dimethyl-5,6,7,8-tetrahydro-5,8-methanocinnolin-8-yl)methyl)-4-methyloxazolidin-2-one] returned an IC50 of 103 nM.

As for `CCN(C[C@@]12CC[C@@H](c3cc(-c4c(F)cccc4F)nnc31)C2(C)C)c1nnc(CO)o1` [Example 296, (5-((((5R,8S)-3-(2,6-difluorophenyl)-9,9-dimethyl-5,6,7,8-tetrahydro-5,8-methanocinnolin-8-yl)methyl)(ethyl)amino)-1,3,4-oxadiazol-2-yl)methanol], the IC50 is 22 nM.

Molecule `CC[C@]12CC[C@H](c3cc(-c4ccccc4F)nnc31)C2(C)C` [Example 35, (5S,8R)-8-ethyl-3-(2-fluorophenyl)-9,9-dimethyl-5,6,7,8-tetrahydro-5,8-methanocinnoline] yielded an IC50 of 37 nM.

In the case of `Cc1nnc(OC(=O)[C@]23CC[C@H](c4cc(-c5c(F)cccc5F)nnc42)C3(C)C)o1` [Example 270, (5S,8S)-5-methyl-1,3,4-oxadiazol-2-yl 3-(2,6-difluorophenyl)-9,9-dimethyl-5,6,7,8-tetrahydro-5,8-methanocinnoline-8-carboxylate], the IC50 worked out at 1380 nM.

`CCNC(=O)N(C)[C@@]12CC[C@@H](c3cc(-c4c(F)cccc4F)nnc31)C2(C)C` [Example 285, 1-((5R,8R)-3-(2,6-difluorophenyl)-9,9-dimethyl-5,6,7,8-tetrahydro-5,8-methanocinnolin-8-yl)-3-ethyl-1-methylurea] had a half-maximal inhibitory concentration (IC50) of 2070 nM.

On to `Cc1nc([C@@]23CC[C@@H](c4cc(-c5c(F)cccc5F)nnc42)C3(C)C)no1` [Example 80, (5R,8R)-3-(2,6-difluorophenyl)-9,9-dimethyl-8-(5-methyl-1,2,4-oxadiazol-3-yl)-5,6,7,8-tetrahydro-5,8-methanocinnoline], for which the IC50 is 136 nM.

Usually IC50 stands for the concentration that gives 50% inhibition. Low readings indicate greater potency, high ones weaker potency.
